Assay results: patent US20200024278A1, “COMPOSITION COMPRISING ANTIBIOTIC COMPOUND AND AN HETEROCYCLIC COMPOUND AND THEIR USE IN PREVENTING OR TREATING BACTERIAL INFECTIONS” (MUTABILIS, priority 2016, published 2020)

Legend:
Experiment in all cases: MIC, broth microdilution (CLSI), substance alone or ATB combined with compound at 4 or 8 μg/mL
ECL P99 = type: cell-based, E. cloacae
In short: (§1)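 Broth microdilution; ca-MHB; 5·10^5 CFU/mL; 35° C, 16-20 h; compound alone or fixed 4/8 μg/mL with antibiotic series; endpoint = no visible growth.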

SAU 29213 = type: cell-based, S. aureus; settings: for MIC ATB combined with compound / MIC ATB combined with Example compound: compound @8 μg/ml, SAU 29213
In short: as §1

KPN UFR42 = type: cell-based, K. pneumoniae; settings: for MIC ATB combined with Example compound: compound @8 μg/ml, KPN UFR42
Protocol: (§2) Compounds of the present invention were assessed against genotyped bacterial strains alone or in combination with an antibacterial. In the assays, MICs of said compounds or combination of antibiotics with fixed concentrations of said compounds (4 or 8 μg/mL) were determined by the broth microdilution method according to the Clinical Laboratory Standards Institute (CLSI-M7-A7). Briefly, compounds alone according to the invention were prepared in DMSO and spotted (2 μL each) on sterile polystyrene plates (Corning, 3788). Combinations of compounds and antibiotics dilutions were prepared in DMSO and spotted (1 μL each) on sterile polystyrene plates (Corning, 3788). Log phase bacterial suspensions were adjusted to a final density of 5·10^5 CFU/mL in cation-adjusted Mueller-Hinton broth (ca-MHB; Becton-Dickinson and Company) and added to each well (98 μL). Assays including Fosfomycin were supplemented with 25 μg/ml of Glucose-6-phosphate. Microplates were incubated for 16-20 h at 35° C. in ambient air. The MIC of the compounds was defined as the lowest concentration of said compounds that prevented bacterial growth as read by visual inspection. The MIC of ATB at each compound concentration was defined as the lowest concentration of ATB that prevented bacterial growth as read by visual inspection.

KPN BAA-1898 = type: cell-based, K. pneumoniae
Protocol: as §2

KPN 6299 = type: cell-based, K. pneumoniae; settings: MIC of CIP, compound @8 μg/ml
Protocol: as §2

SPN 49619 = type: cell-based, S. pneumoniae; settings: for MIC ATB combined with compound / MIC ATB combined with Example compound: compound @8 μg/ml, SPN 49619
In short: as §1

ECO UFR39 = type: cell-based, E. coli; settings: for MIC ATB combined with Example compound: compound @8 μg/ml, ECO UFR39
In short: as §1

ECO 190317 = type: cell-based, E. coli
In short: as §1

PAE UFR90 = type: cell-based, P. aeruginosa; settings: for MIC ATB combined with compound / MIC ATB combined with Example compound: compound @8 μg/ml, PAE UFR90
In short: as §1

PAE UFR48 = type: cell-based, P. aeruginosa; settings: for MIC ATB combined with compound / MIC ATB combined with Example compound: compound @8 μg/ml, PAE UFR48
In short: as §1

PAE 105250 = type: cell-based, P. aeruginosa; settings: for MIC ATB combined with compound / MIC ATB combined with Example compound: compound @8 μg/ml, PAE 105250
In short: as §1

Compound: O=C1N2CC(c3ncco3)=CC(C2)N1OC(F)(F)C(=O)O (stereo not shown) [Example 7]
- MIC (ECL P99; Enterobacter cloacae): 8 µg/mL
- MIC ATB combined with Example compound (ECL P99; MIC of CIP, compound @8 μg/ml, ECL P99): <0.031 µg/mL
- MIC ATB combined with compound (SAU 29213; ATB ATM): >32 µg/mL
- MIC ATB combined with compound (SAU 29213; ATB FEP): 1 µg/mL
- MIC ATB combined with compound (SAU 29213; ATB FOS): 0.5 µg/mL
- MIC ATB combined with compound (SAU 29213; ATB MEM): <=0.031 μg/mL
- MIC ATB combined with compound (SAU 29213; ATB PIP): 1 µg/mL
- MIC ATB combined with Example compound (SAU 29213; MIC of CIP): 0.25 µg/mL
- MIC ATB combined with Example compound (SAU 29213; MIC of CLI): 0.031 µg/mL
- MIC ATB combined with Example compound (SAU 29213; MIC of CPO): 0.25 µg/mL
- MIC ATB combined with Example compound (SAU 29213; MIC of DAP): 1 µg/mL
- MIC ATB combined with Example compound (SAU 29213; MIC of ERY): 0.25 µg/mL
- MIC ATB combined with Example compound (SAU 29213; MIC of LZD): 1 µg/mL
- MIC ATB combined with Example compound (SAU 29213; MIC of RIF): 0.0078 µg/mL
- MIC ATB combined with Example compound (SAU 29213; MIC of SYN): 0.25 µg/mL
- MIC ATB combined with Example compound (SAU 29213; MIC of VAN): 1 µg/mL
- MIC (SAU 29213; Staphylococcus aureus, MSSA): 32 µg/mL
- MIC (KPN UFR42; Klebsiella pneumoniae): 16 µg/mL
- MIC ATB combined with Example compound (KPN UFR42; MIC of CIP): >32 µg/mL
- MIC ATB combined with Example compound (KPN UFR42; MIC of CPO): <=0.031 μg/mL
- MIC (KPN BAA-1898; Klebsiella pneumoniae, BAA1898): 8 µg/mL
- MIC ATB combined with Example compound (KPN BAA-1898; MIC of CIP, compound @8 μg/ml, KPN BAA-1898): 1 µg/mL
- MIC ATB combined with Example compound (KPN 6299): 8 µg/mL
- MIC ATB combined with compound (SPN 49619; ATB ATM): >32 µg/mL
- MIC ATB combined with compound (SPN 49619; ATB FEP): <=0.031 μg/mL
- MIC ATB combined with compound (SPN 49619; ATB FOS): 8 µg/mL
- MIC ATB combined with compound (SPN 49619; ATB MEM): <=0.031 μg/mL
- MIC ATB combined with compound (SPN 49619; ATB PIP): 0.5 µg/mL
- MIC ATB combined with Example compound (SPN 49619; MIC of CIP): 0.5 µg/mL
- MIC ATB combined with Example compound (SPN 49619; MIC of CLI): 0.125 µg/mL
- MIC ATB combined with Example compound (SPN 49619; MIC of CPO): <=0.031 μg/mL
- MIC ATB combined with Example compound (SPN 49619; MIC of DAP): 0.125 µg/mL
- MIC ATB combined with Example compound (SPN 49619; MIC of ERY): 0.125 µg/mL
- MIC ATB combined with Example compound (SPN 49619; MIC of LZD): 1 µg/mL
- MIC ATB combined with Example compound (SPN 49619; MIC of RIF): 0.0078 µg/mL
- MIC ATB combined with Example compound (SPN 49619; MIC of SYN): 0.5 µg/mL
- MIC ATB combined with Example compound (SPN 49619; MIC of VAN): 0.125 µg/mL
- MIC (SPN 49619; Streptococcus pneumoniae): 16 µg/mL
- MIC (ECO UFR39; Escherichia coli): 8 µg/mL
- MIC ATB combined with Example compound (ECO UFR39; MIC of CIP): <0.031 µg/mL
- MIC ATB combined with Example compound (ECO UFR39; MIC of CPO): <0.031 µg/mL
- MIC (ECO 190317; Escherichia coli): 4 µg/mL
- MIC ATB combined with Example compound (ECO 190317; MIC of CIP, compound @8 μg/ml, ECO 190317): <0.031 µg/mL
- MIC ATB combined with compound (PAE UFR90; ATB ATM): 16 µg/mL
- MIC ATB combined with compound (PAE UFR90; ATB FEP): 4 µg/mL
- MIC ATB combined with compound (PAE UFR90; ATB FOS): 8 µg/mL
- MIC ATB combined with compound (PAE UFR90; ATB MEM): 2 µg/mL
- MIC ATB combined with compound (PAE UFR90; ATB PIP): >32 µg/mL
- MIC ATB combined with Example compound (PAE UFR90; MIC of CIP): 1 µg/mL
- MIC ATB combined with Example compound (PAE UFR90; MIC of CPO): 16 µg/mL
- MIC (PAE UFR90; Pseudomonas aeruginosa): > 32 µg/mL
- MIC ATB combined with compound (PAE UFR48; ATB ATM): >32 µg/mL
- MIC ATB combined with compound (PAE UFR48; ATB FEP): 32 µg/mL
- MIC ATB combined with compound (PAE UFR48; ATB FOS): 32 µg/mL
- MIC ATB combined with compound (PAE UFR48; ATB MEM): 4 µg/mL
- MIC ATB combined with compound (PAE UFR48; ATB PIP): >32 µg/mL
- MIC ATB combined with Example compound (PAE UFR48; MIC of CIP): 4 µg/mL
- MIC ATB combined with Example compound (PAE UFR48; MIC of CPO): >32 µg/mL
- MIC (PAE UFR48; Pseudomonas aeruginosa): > 32 µg/mL
- MIC ATB combined with compound (PAE 105250; ATB ATM): 8 µg/mL
- MIC ATB combined with compound (PAE 105250; ATB FEP): 8 µg/mL
- MIC ATB combined with compound (PAE 105250; ATB FOS): >128 µg/mL
- MIC ATB combined with compound (PAE 105250; ATB MEM): 4 µg/mL
- MIC ATB combined with compound (PAE 105250; ATB PIP): >32 µg/mL
- MIC ATB combined with Example compound (PAE 105250; MIC of CIP): 0.125 µg/mL
- MIC ATB combined with Example compound (PAE 105250; MIC of CPO): 16 µg/mL
- MIC (PAE 105250; Pseudomonas aeruginosa): > 32 µg/mL
